Assay results taken from patent US8648066B2 (Exelixis, Inc., priority 2009, dated 2014).

Molecular target: mTOR/GbL/Raptor (mTORC1) (Homo sapiens, UniProt P42345)
Assay: mTOR/GbL/Raptor (mTORC1) ELISA assay
Assay type: biochemical
Conditions: phosphorylation of 4E-BP1; 0.2 nM mTORC1, 10 μM ATP; read-out: IC50 in this assay (mTORC1 ELISA)
Method: The measurement of mTORC1 enzyme activity was performed in an ELISA assay format following the phosphorylation of 4E-BP1 protein. All experiments were performed in the 384-well format. Generally, 0.5 μL DMSO containing varying concentrations of the test Compound was mixed with 15 μL enzyme solution. Kinase reactions were initiated with the addition of 15 μL of substrates-containing solution. The assay conditions were as follows; 0.2 nM mTORC1, 10 μM ATP and 50 nM NHis-tagged 4E-BP1 in 20 mM Hepes, pH 7.2, 1 mM DTT, 50 mM NaCl, 10 mM MnCl2, 0.02 mg/mL BSA, 0.01% CHAPS, 50 mM β-glycerophosphate. Following an incubation of 120 minutes at ambient temperature, 20 μL of the reaction volume was transferred to a Ni-Chelate-coated 384-well plate. The binding step of the 4E-BP1 protein proceeded for 60 minutes, followed by washing 4 times each with 50 μL of Tris-buffered saline solution (TBS). Anti-phospho-4E-BP1 rabbit-IgG (20 μL, 1:5000) in 5% BSA-TBST (0.2% Tween-20 in TBS) was added and further incubated for 60 minutes. Incubation with a secondary HRP-tagged anti-IgG was similarly performed after washing off the primary antibody (4 washes of 50 μL). Following the final wash step with TBST, 20 μL of SuperSignal ELISA Femto (Pierce Biotechnology) was added and the luminescence measured using an EnVision plate reader.

SMILES	IC50
CC[C@H]1CCc2c(nc(CN(C)C)nc2N2CCOc3ccc(-c4cnc5nc(C)[nH]c5c4)cc3C2)C1 [Example 334, 1-{(7S)-7-ethyl-4-[7-(2-methyl-1H-imidazo[4,5-b]pyridin-6-yl)-2,3-dihydro-1,4-benzoxazepin-4(5H)-yl]-5,6,7,8-tetrahydroquinazolin-2-yl}-N,N-dimethylmethanamine]	10 to 50 nM
Cc1ncnc(N2CCOc3ccc(-c4cncs4)cc3C2)c1Cc1ccc(F)cc1 [Example 150, 4-{5-[(4-fluorrophenyl)methyl]-6-methylpyrimidin-4-yl}-7-(1,3-thiazol-5-yl)-2,3,4,5-tetrahydro-1,4-benzoxazepine]	50 to 250 nM
CC1(C)CCc2ncnc(N3CCOc4ccc(-c5cnc(N)c(S(=O)(=O)N6CC(C)(N)C6)c5)cc4C3)c2C1 [Example 439, 3-[(3-amino-3-methylazetidin-1-yl)sulfonyl]-5-[4-(6,6-dimethyl-5,6,7,8-tetrahydroquinazolin-4-yl)-2,3,4,5-tetrahydro-1,4-benzoxazepin-7-yl]pyridin-2-amine]	≤ 10 nM
COc1cc2c(N3CCOc4ccc(-c5ccc6nc(C)[nH]c6c5)cc4C3)ncnc2cc1Br [Example 31, 4-[7-bromo-6-(methyloxy)quinazolin-4-yl]-7-(2-methyl-1H-benzimidazol-6-yl)-2,3,4,5-tetrahydro-1,4-benzoxazepine]	250 to 1000 nM
CC1(C)CCc2ncnc(N3CCOc4ccc(-c5cnc(N)c(CS(C)(=O)=O)c5)cc4C3)c2C1 [Example 517, 5-[4-(6,6-dimethyl-5,6,7,8-tetrahydroquinazolin-4-yl)-2,3,4,5-tetrahydro-1,4-benzoxazepin-7-yl]-3-[(methylsulfonyl)methyl] pyridin-2-amine]	10 to 50 nM
CCCNC(=O)c1ccc(-c2ccc3c(c2)CN(c2ccnc4ccccc24)CCO3)cc1 [Example 244, N-propyl-4-(4-quinolin-4-yl-2,3,4,5-tetrahydro-1,4-benzoxazepin-7-yl)benzamide]	50 to 250 nM
CC1(C)CCc2ncnc(N3CCOc4ccc(-c5cnc(N)c(NS(C)(=O)=O)c5)cc4C3)c2C1 [Example 620, N-{2-amino-5-[4-(6,6-dimethyl-5,6,7,8-tetrahydroquinazolin-4-yl)-2,3,4,5-tetrahydro-1,4-benzoxazepin-7-yl]pyridin-3-yl}methanesulfonamide]	50 to 250 nM
CCc1c(C)nc(C)nc1N1CCOc2ccc(-c3cnc4nc(C)[nH]c4c3)cc2C1 [Example 469, 4-(5-ethyl-2,6-dimethylpyrimidin-4-yl)-7-(2-methyl-1H-imidazo[4,5-b]pyridin-6-yl)-2,3,4,5-tetrahydro-1,4-benzoxazepine]	50 to 250 nM
COc1c(O)ccc2c(N3CCOc4ccc(-c5ccc6nc(C)[nH]c6c5)cc4C3)ncnc12 [Example 164, 4-[7-(2-methyl-1H-benzimidazol-6-yl)-2,3-dihydro-1,4-benzoxazepin-4-(5H)-yl]-8-(methyloxy)quinazolin-7-ol]	250 to 1000 nM
C[C@H](CO)CS(=O)(=O)c1cc(-c2ccc3c(c2)CN(c2ncnc4c2CC(C)(C)CC4)CCO3)cnc1N [Example 299, (2R)-3-({2-amino-5-[4-(6,6-dimethyl-5,6,7,8-tetrahydroquinazolin-4-yl)-2,3,4,5-tetrahydro-1,4-benzoxazepin-7-yl]pyridin-3-yl}sulfonyl)-2-methylpropan-1-ol]	10 to 50 nM
Cc1nc2ccc(-c3ccc4c(c3)CN(c3ncnc5c(C#N)c6n(c35)CCCC6)CCO4)cc2[nH]1 [Example 51, 4-[7-(2-methyl-1H-benzimidazol-6-yl)-2,3-dihydro-1,4-benzoxazepin-4(5H)-yl]-6,7,8,9-tetrahydropyrimido[4,5-b]indolizine-10-carbonitrile]	250 to 1000 nM
Cc1nc(N2CCOc3ccc(-c4ccc(-c5ncc[nH]5)cc4)cc3C2)c2ccccc2n1 [Example 251, 7-[4-(1H-imidazol-2-yl)phenyl]-4-(2-methylquinazolin-4-yl)-2,3,4,5-tetrahydro-1,4-benzoxazepine]	10 to 50 nM
CCNc1nc2ccc(-c3ccc4c(c3)CN(c3nc(NC)nc5ccccc35)CCO4)cc2[nH]1 [Example 269, 4-{7-[2-(ethylamino)-1H-benzimidazol-6-yl]-2,3-dihydro-1,4-benzoxazepin-4(5H)-yl}-N-methylquinazolin-2-amine]	250 to 1000 nM
COc1ccccc1Cc1c(C)ncnc1N1CCOc2ccc(-c3ccc4nc(C)[nH]c4c3)cc2C1 [Example 84, 7-(2-methyl-1H-benzimidazol-6-yl)-4-(6-methyl-5-{[2-(methyloxy)phenyl]methyl}pyrimidin-4-yl)-2,3,4,5-tetrahydro-1,4-benzoxazepine]	10 to 50 nM
c1ccc2c(N3CCOc4ccc(-c5ccc6nc[nH]c6c5)cc4C3)ccnc2c1 [Example 126, 7-(1H-benzimidazol-6-yl)-4-quinolin-4-yl-2,3,4,5-tetrahydro-1,4-benzoxazepine]	250 to 1000 nM
Cc1nc2ncc(-c3ccc4c(c3)CN(c3ncnc5c3CC(F)(F)CC5)CCO4)cc2[nH]1 [Example 471, 4-(6,6-difluoro-5,6,7,8-tetrahydcroquinazolin-4-yl)-7-(2-methyl-1H-imidazo[4,5-b]pyridin-6-yl)-2,3,4,5-tetrahydro-1,4-benzoxazepine]	50 to 250 nM
Cc1ncnc(N2CCOc3ccc(-c4ccc5[nH]c(NCCF)nc5c4)cc3C2)c1Cc1ccc(F)cc1 [Example 193, N-(2-fluoroethyl)-5-(4-{5-[(4-fluorophenyl)methyl]-6-methylpyrimidin-4-yl}-2,3,4,5-tetrahydro-1,4-benzoxazepin-7-yl)-1H-benzimidazol-2-amine]	≤ 10 nM
CC1(C)CCc2ncnc(N3CCOc4ccc(-c5cnc(N)c(S(=O)(=O)N6CCC(C)(N)C6)c5)cc4C3)c2C1 (stereo not drawn) [Example 440, 3-[(3-amino-3-methylpyrrolidin-1-yl)sulfonyl]-5-[4-(6,6-dimethyl-5,6,7,8-tetrahydroquinazolin-4-yl)-2,3,4,5-tetrahydro-1,4-benzoxazepin-7-yl]pyridin-2-amine]	≤ 10 nM
CC1=C(C)C(C)(C)Cc2c1ncnc2N1CCOc2ccc(-c3cnc4nc(C)[nH]c4c3)cc2C1 [Example 552, 7-(2-methyl-1H-imidazo[4,5-b]pyridin-6-yl)-4-(6,6,7,8-tetramethyl-5,6-dihydroquinazolin-4-yl)-2,3,4,5-tetrahydro-1,4-benzoxazepine]	≤ 10 nM
CC1(C)CCc2ncnc(N3CCOc4ccc(-c5cnc6[nH]c(C7CC7)nc6c5)cc4C3)c2C1 [Example 224, 7-(2-cyclopropyl-3H-imidazo[4,5-b]pyridin-6-yl)-4-(6,6-dimethyl-5,6,7,8-tetrahydroquinazolin-4-yl)-2,3,4,5-tetrahydro-1,4-benzoxazepine]	≤ 10 nM
Nc1nc2ncc(-c3ccc4c(c3)CN(c3ncnc5ccc(Cl)cc35)CCO4)cc2[nH]1 [Example 186, 6-[4-(6-chloroquinazolin-4-yl)-2,3,4,5-tetrahydro-1,4-benzoxazepin-7-yl]-1H-imidazo[4,5-b]pyridin-2-amine]	10 to 50 nM
COCCOCc1nc2c(c(N3CCOc4ccc(-c5ccc6nc(C)[nH]c6c5)cc4C3)n1)CC(C)(C)CC2 [Example 494, 4-[6,6-dimethyl-2-({[2-(methyloxy)ethyl]oxy}methyl)-5,6,7,8-tetrahydroquinazolin-4-yl]-7-(2-methyl-1H-benzimidazol-6-yl)-2,3,4,5-tetrahydro-1,4-benzoxazepine]	10 to 50 nM
CCc1c(C)nc(CN(C)C)nc1N1CCOc2ccc(-c3cnc4[nH]c(C)nc4c3)cc2C1 [Example 350, 1-{5-ethyl-4-methyl-6-[7-(2-methyl-3H-imidazo[4,5-b]pyridin-6-yl)-2,3-dihydro-1,4-benzoxazepin-4(5H)-yl]pyrimidin}-N,N-dimethylmethanamine]	50 to 250 nM
CC1=CC(C)(C)Cc2c1ncnc2N1CCOc2ccc(-c3cnc(N)c(S(=O)(=O)N4CC[C@@H](N)C4)c3)cc2C1 [Example 448, 3-{[(3R)-3-aminopyrrolidin-1-yl]sulfonyl}-5-[4-(6,6,8-trimethyl-5,6-dihydroquinazolin-4-yl)-2,3,4,5-tetrahydro-1,4-benzoxazepin-7-yl]pyridin-2-amine]	≤ 10 nM
Cc1nc2ccc(-c3ccc4c(c3)CN(c3ncnc(C)c3Cc3cccc(C(F)(F)F)c3)CCO4)cc2[nH]1 [Example 92, 7-(2-methyl-1H-benzimidazol-6-yl)-4-(6-methyl-5-{[3-(trifluoromethyl)phenyl]methyl}pyrimidin-4-yl)-2,3,4,5-tetrahydro-1,4-benzoxazepine]	250 to 1000 nM
CC1(C)CCc2ncnc(N3CCOc4ccc(-c5cncc(S(N)(=O)=O)c5)cc4C3)c2C1 [Example 522, 5-[4-(6,6-dimethyl-5,6,7,8-tetrahydroquinazolin-4-yl)-2,3,4,5-tetrahydro-1,4-benzoxazepin-7-yl]pyridin-3-sulfonamide]	250 to 1000 nM
CC1(C)C=Cc2ncnc(N3CCOc4ccc(-c5cnc(N)c(S(=O)(=O)N6CC[C@@H](N)C6)c5)cc4C3)c2C1 [Example 450, 3-{[(3R)-3-aminopyrrolidin-1-yl]sulfonyl}-5-[4-(6,6-dimethyl-5,6-dihydroquinazolin-4-yl)-2,3,4,5-tetrahydro-1,4-benzoxazepin-7-yl]pyridin-2-amine]	≤ 10 nM
